SMILES strings stand for the structures. pIC50: −log10 of the molar value.

Consider 18 compounds from patent US8841324B2, “Heterocyclic compounds as autotaxin inhibitors” (Merck Patent GmbH, priority 2009, dated 2014).

For this assay, the target named is T1, recombinant autotaxin (Homo sapiens, UniProt Q13822).
T1 construct: made in house; host or cells: Hi5 insect cells (baculovirus)
Kind of assay: Autotaxin test (enzyme test), Amplex Red fluorescence readout. The format is biochemical. The note with it: Autotaxin inhibition (enzyme test); substrate LPC 75 μM, 37° C. for 90 min. As to the method:
Pharmacological Data Autotaxin Inhibition (Enzyme Test)
Autotaxin Test (Enzyme Test)
The autotaxin activity is measured indirectly using Amplex Red reagent. Amplex Red is measured here as fluorogenic indicator for the H2O2 formed. In detail, autotaxin converts the substrate lysophosphatidylcholine (LPC) into phosphocholine and lysophosphatidylic acid (LPA). After this reaction, the phosphocholine is reacted with alkaline phosphatase to give inorganic phosphate and choline. In the next step, choline is oxidised by choline oxidase to give betaine, with formation of H2O2. H2O2 reacts with Amplex Red reagent in the presence of peroxidase (horseradish peroxidase) in a 1:1 stoichiometry and forms the highly fluorescent resorufin. The fluorescence is measured in a reaction-dependent kinetic mode in order that fluorescent signals from possible other fluorescent substances which are not involved in the reaction can be corrected out.
1.5 μl of a standard solution or of the test substances (substances with the name A(n)) in individual concentrations dissolved in 20 mM Hepes pH 7.2 with a maximum of 7.7% of DMSO are pre-incubated together with 10 μl (16 ng) of highly purified recombinant autotaxin in a black microtitre plate provided with 384 wells at 22° C. for 30 min. The reaction is then initiated by addition of 5 μl of L-α-lysophosphatidylcholine (LPC), where the final concentration of LPC is 75 μM. The mixture is incubated at 37° C. for 90 min. After the incubation, Amplex Red reagent, peroxidase (horseradish peroxidase) and choline oxidase is added, and the fluorescence is immediately measured at 612 nm with excitation of 485 nm in a “Tecan Ultra multimode” reader. The activity of autotaxin is calculated indirectly via detection of the H2O2 formed.
• Microtitre plate: PS microplate, 384 wells, small volume, black Corning, Cat#3677 • Protein: recombinant autotaxin (Baculovirale Hi5 Expression) • Substrate: L-α-lysophosphatidylcholine (chicken egg)); Avanti Polar Lipids #830071P • Standard: C14 LPA, Avanti Polar Lipids, Cat#857120P • Detection reagent: Amplex Red reagent; Invitrogen # A12222; dissolved in 1.923 ml of DMSO peroxidase type VI-A (horseradish) from Sigma # P6782; dissolved in 7.45 ml of test buffer, choline oxidase; Sigma # C5896; dissolved in 2.47 ml of test buffer • Detection reagent mix: 1:100 dilution of Amplex Red reagent in test buffer • Test buffer: 200 mM Tris HCl, Merck, Cat #1.08219, pH 7.9, 0.1% of BSA, lipid-free, Roche Cat#775835
One may read the pIC50 as −log10 of the IC50, conventionally taken in molar units. Take `O=C(CNC1CCN(C(=O)OCc2cc(Cl)cc(Cl)c2)CC1)Nc1ccc2[nH]c(=O)oc2c1` [Compound 11, 3,5-dichlorobenzyl 4-{[(2-oxo-2,3-dihydrobenzoxazol-6-ylcarbamoyl)methyl]amino}piperidine-1-carboxylate]: the pIC50 was 6.00 to 7.00.

As for `O=C(OCc1cc(Cl)cc(Cl)c1)N1CCN(CCC(O)c2ccc3[nH]c(=O)oc3c2)CC1` (stereo not drawn) [Compound 13, 3,5-dichlorobenzyl 4-[3-hydroxy-3-(2-oxo-2,3-dihydrobenzoxazol-6-yl)propyl]piperazine-1-carboxylate], the pIC50 was 6.00 to 7.00.

Consider `O=C(OCc1ccc(Cl)cc1)N1CCN(CCC(F)(F)c2ccc3[nH]c(=O)oc3c2)CC1` [Compound 17, 4-chlorobenzyl 4-[3,3-difluoro-3-(2-oxo-2,3-dihydrobenzoxazol-6-yl)propyl]piperazine-1-carboxylate], for which the negative logarithm of the IC50 (pIC50) is 6.00 to 7.00.

For `O=C(OCc1cc(Cl)cc(Cl)c1)N1CCN(CCN2CCC(c3ccc4[nH]c(=O)oc4c3)=N2)CC1` [Compound 21, 3,5-dichlorobenzyl 4-{2-[3-(2-oxo-2,3-dihydrobenzoxazol-6-yl)-4,5-dihydropyrazol-1-yl]ethyl}piperazine-1-carboxylate], the negative-log IC50 (pIC50) was less than 6.00.

As for `O=C(Cc1ccc2[nH]nnc2c1)N1CCN(C(=O)OCc2ccc(Cl)cc2)CC1` [Compound 24, 4-chlorobenzyl 4-(2-1H-benzotriazol-5-ylacetyl)piperazine-1-carboxylate], the pIC50 is less than 6.00.

Turning to `O=C(CN1CCN(C(=O)CCOc2ccc(Cl)cc2)CC1)c1ccc2[nH]c(=O)oc2c1` [Compound 27, 6-(2-{4-[3-(4-chlorophenoxy)propionyl]piperazin-1-yl}acetyl)-3H-benzoxazol-2-one], the pIC50 was less than 6.00.

`O=C(CCNC(=O)N1CCN(C(=O)OCc2ccc(Cl)cc2)CC1)Nc1ccc2[nH]nnc2c1` [Compound 33, 4-chlorobenzyl 4-[2-(1H-benzotriazol-5-ylcarbamoyl)ethyl-carbamoyl]piperazine-1-carboxylate]: the pIC50 is less than 6.00.

For the compound `O=C(CC(=O)NC1CCN(C(=O)OCc2ccc(Cl)cc2)CC1)Nc1ccc2[nH]nnc2c1` [Compound 39, 4-chlorobenzyl 4-[2-(1H-benzotriazol-5-ylcarbamoyl)acetylamino]piperidine-1-carboxylate], the pIC50 was 6.00 to 7.00.

Regarding `O=C(NCCN1CCN(C(=O)OCc2cc(Cl)cc(Cl)c2)CC1)c1ccc2[nH]nnc2c1` [Compound A1, 3,5-Dichlorobenzyl 4-{2-[(1H-benzotriazole-5-carbonyl)amino]ethyl}piperazine-1-carboxylate], the pIC50 was 6.00 to 7.00.

As to `O=C(NCCN1CCN(C(=O)OCc2ccc(C(F)(F)F)cc2)CC1)c1ccc2[nH]nnc2c1` [Compound A2, 4-Trifluoromethylbenzyl 4-{2-[(1H-benzotriazole-5-carbonyl)amino]ethyl}piperazine-1-carboxylate], the negative-log IC50 (pIC50) is less than 6.00.

On to `O=C(NCCN1CCN(C(=O)OCc2ccc(Cl)cc2F)CC1)c1ccc2[nH]nnc2c1` [Compound A3, 4-Chloro-2-fluorobenzyl 4-{2-[(1H-benzotriazole-5-carbonyl)amino]ethyl}piperazine-1-carboxylate], for which the negative logarithm of the IC50 (pIC50) is less than 6.00.

As to `O=C(CN1CCN(C(=O)OCc2ccc(Cl)cc2)CC1)Nc1ccc2[nH]c(=O)oc2c1` [Compound A8, 4-Chlorobenzyl 4-[(2-oxo-2,3-dihydrobenzoxazol-6-ylcarbamoyl)methyl]piperazine-1-carboxylate], the pIC50 was less than 6.00.

On to `O=C(Nc1ccc2[nH]c(=O)oc2c1)C(c1ccccc1)N1CCN(C(=O)OCc2ccc(Cl)cc2)CC1` (stereo not drawn) [Compound A10, 4-Chlorobenzyl 4-[(2-oxo-2,3-dihydrobenzoxazol-6-ylcarbamoyl)phenylmethyl]piperazine-l-carboxylate], for which the pIC50 was less than 6.00.

`O=C(CCN1CCN(C(=O)OCc2ccc(Cl)cc2)CC1)Nc1ccc2[nH]c(=O)oc2c1` [Compound A13, 4-Chlorobenzyl 4-[2-(2-oxo-2,3-dihydrobenzoxazol-6-ylcarbamoyl)ethyl]piperazine-1-carboxylate]: the negative logarithm of the IC50 (pIC50) is less than 6.00.

`O=C(CCCN1CCN(C(=O)OCc2ccc(Cl)cc2)CC1)Nc1ccc2[nH]nnc2c1` [Compound A14, 4-Chlorobenzyl 4-[3-(1H-benzotriazol-5-yl-carbamoyl)propyl]piperazine-1-carboxylate]: the negative logarithm of the IC50 (pIC50) was less than 6.00.

Regarding `O=C(CN1CCC(NC(=O)OCc2cc(Cl)cc(Cl)c2)C1)Nc1ccc2[nH]nnc2c1` (stereo not drawn) [Compound A16, 3,5-Dichlorobenzyl {1-[(1H-benzotriazol-5-yl-carbamoyl)methyl]pyrrolidin-3-yl}crbamate], the negative-log IC50 (pIC50) was less than 6.00.

With `O=C(NC1[C@H]2CN(C(=O)OCc3cc(Cl)cc(Cl)c3)C[C@@H]12)c1ccc2nn[nH]c2c1` (stereo partly drawn) [Compound A17, 3,5-Dichlorobenzyl (1R,5S)-6-[(3H-benzotriazole-5-carbonyl)amino]-3-azabicyclo[3.1.0]hexane-3-carboxylate], the negative logarithm of the IC50 (pIC50) was less than 6.00.

For the compound `O=C(OCc1cc(Cl)cc(Cl)c1)N1CCN(CC(O)c2ccc3[nH]c(=O)oc3c2)CC1` (stereo not drawn) [Compound A18, 3,5-Dichlorobenzyl 4-[2-hydroxy-2-(2-oxo-2,3-dihydrobenzoxazol-6-yl)ethyl]piperazine-1-carboxylate], the negative logarithm of the IC50 (pIC50) was less than 6.00.
